Assays:
cyclooxygenase = test: inhibition of synthesis of cyclooxygenase products TxB2 and PGE2 (rat polymorphonuclear leukocytes); assay type: cell-based; details: 10 μM, rat PMN; for % Inhibition of CO (as PGE2): negative = potentiation of PGE2 synthesis
Protocol: (§1) Peritoneal PMN are obtained from female Wistar rats (150-250 g) that received an i.p. injection of 6% glycogen (10 ml). After 24 hours, rats are killed by CO2 asphysiation and peritoneal cells are harvested by peritoneal lavage using Ca^++ and MG^++ free Hanks' balanced salt solution (HBSS). The peritoneal exudate is centrifuged at 400 g for 10 minutes. After centrifugation, the lavaged fluid is removed and the cell pellet is resuspended in HBSS containing Ca^++ and MG^++ and 10 mM L-cysteine at a concentration of 2×10^7 cells/ml. To 1 ml portions of cell suspension, test drugs or vehicle are added and incubated at 37° C. for 10 minutes. Following this preincubation, the calcium ionophore (10 μM), a23187, is added together with 0.5 μM [14 C] arachidonic acid and further incubated for 10 minutes. The reaction is stopped by the addition of ice cold water (3 ml) and acidifying to pH 3.5. Lipoxygenase products are then extracted twice into diethyl ether. The pooled ether extracts are evaporated to dryness under nitrogen and the residue is redissolved in a small volume of methanol and spotted on aluminum backed pre-coated thin layer chromatographic plates. The samples are then cochromatographed with authentic reference 5-HETE in the solvent system - hexane: ether: acetic acid (50:50:3). After chromatography, the areas associated with 5-HETE standard are identified by autoradiography, cut out and quantitated by liquid scintillation.
However, in order to determine cyclooxygenase activity, the samples are cochromatographed with authentic reference TxB2 and PGE2 in the solvent system ethyl acetate: formic acid (80:1) and the upper phase of ethyl acetate: isooctane: acetic acid: water (110:50:20:100). After chromatography, the areas associated with the TxB2 and PGE2 standards are identified by autoradiography, cut out and quantitated by liquid scintillation techniques.

carrageenan paw edema = test: rat carrageenan paw edema assay; assay type: in vivo; details: 1 hour prior to carrageenan, rat
Protocol: The compounds of the invention are further tested in the rat carrageenan paw edema assay to determine their ability to inhibit the acute inflammatory response.
140-180 gm male Sprague-Dawley rats, in groups of 6 animals are injected subcutaneously in the right paw with 0.1 ml of 1% carrageenan at zero time. Mercury plethysmographic readings (ml) of the paw are made at zero time and 3 hours later. Test compounds are suspended or dissolved in 0.5% methylcellulose and given perorally 1 hour prior to carrageenan administration.
The increase in paw volume (edema in ml.) produced by the carrageenan is measured. […] Unpaired Student's t-test is used to determine statistical significance.

5-lipoxygenase = molecular target: T1, 5-lipoxygenase (Rattus norvegicus, UniProt P12527); test: inhibition of 5-HETE synthesis by rat glycogen elicited polymorphonuclear leukocytes; assay type: cell-based; details: 10 μM; rat PMN; negative = potentiation of 5-HETE synthesis; read-out: % Inhibition of 5-LO (as 5-HETE)
T1 construct: Peritoneal PMN are obtained from female Wistar rats (150-250 g); endogenous in cells; host or cells: rat glycogen-elicited peritoneal polymorphonuclear leukocytes, intact
T1 sequence (P12527 1-673): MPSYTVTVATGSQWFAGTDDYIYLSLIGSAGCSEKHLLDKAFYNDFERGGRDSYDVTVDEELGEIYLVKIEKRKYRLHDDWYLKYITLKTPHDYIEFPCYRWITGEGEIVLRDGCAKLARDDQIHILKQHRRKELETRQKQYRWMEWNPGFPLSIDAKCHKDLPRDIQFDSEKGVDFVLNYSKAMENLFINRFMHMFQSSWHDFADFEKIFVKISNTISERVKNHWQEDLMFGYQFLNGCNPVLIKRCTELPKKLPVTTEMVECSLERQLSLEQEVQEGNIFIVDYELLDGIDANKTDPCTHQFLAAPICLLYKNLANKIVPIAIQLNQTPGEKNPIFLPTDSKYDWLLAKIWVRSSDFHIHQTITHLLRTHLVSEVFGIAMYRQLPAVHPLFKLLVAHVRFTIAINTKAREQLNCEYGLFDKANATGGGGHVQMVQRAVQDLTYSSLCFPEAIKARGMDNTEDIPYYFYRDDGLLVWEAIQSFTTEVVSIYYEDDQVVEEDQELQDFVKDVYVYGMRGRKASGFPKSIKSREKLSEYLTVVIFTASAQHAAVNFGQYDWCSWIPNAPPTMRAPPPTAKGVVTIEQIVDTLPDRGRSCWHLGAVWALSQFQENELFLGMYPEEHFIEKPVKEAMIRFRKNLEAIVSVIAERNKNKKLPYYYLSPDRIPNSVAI
Protocol: The assay of this Example measures the ability of the compounds of the invention to inhibit the synthesis of 5-HETE by rat glycogen elicited polymorphonuclear leukocytes.
as §1

LTD4 = molecular target: T2, LTD4 (Cavia porcellus, UniProt Q2NNR5); test: inhibition of LTD4-induced bronchospasm in guinea pigs; assay type: in vivo; details: 25 mg/kg intraduodenally, 10 minutes before LTD4; guinea pig
T2 construct: isolated guinea pig trachea; from tissue; host or cells: guinea pig tracheal rings
T2 sequence (Q2NNR5 1-340): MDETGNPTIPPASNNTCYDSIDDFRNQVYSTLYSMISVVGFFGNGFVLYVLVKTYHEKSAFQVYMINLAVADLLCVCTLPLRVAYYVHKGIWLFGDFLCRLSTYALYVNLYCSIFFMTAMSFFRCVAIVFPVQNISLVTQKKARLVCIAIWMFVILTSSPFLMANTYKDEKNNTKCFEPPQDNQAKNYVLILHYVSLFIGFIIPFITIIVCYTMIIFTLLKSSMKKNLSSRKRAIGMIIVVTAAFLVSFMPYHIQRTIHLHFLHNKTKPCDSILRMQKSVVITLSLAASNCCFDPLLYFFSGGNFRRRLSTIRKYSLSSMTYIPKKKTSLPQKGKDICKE
Protocol: The assay of this Example measures the in vivo ability of the compounds of the invention to inhibit the bronchospasm induced in guinea pigs by the exogenously administered leukotrienes C4 and/or D4.
Male Hartley strain guinea pigs (350-600 g) are anesthetized with pentobarbital sodium (50 mg/kg, i.p.). The jugular vein is cannulated for injection of drugs and the carotid artery for monitoring blood pressure. The trachea is cannulated for artificial ventilation by a miniature Starling pump and for indirect measurement of respiratory volume changes. The animals are then pretreated with succinylcholine (2 mg/kg i.v.) and indomethacin (10 mg/kg i.v.) in trizma 8.3 buffer, 9 minutes prior to leukotriene challenge. Submaximal bronchoconstrictor responses are established in control animals by varying the dose-levels of leukotriene. Intravenous dose-levels for LTC4 range from 0.4 to 0.6 μg/kg and for LTD4 the range is from 0.3 to 0.5 μg/kg. The aerosol bronchoprovocation dose for LTC4 is generated from 1.6 μM solution and for LTD4 from a 2.0 μM solution.
Test drugs (dissolved in a solvent such as propylene glycol, polyethylene glycol 400 or saline) are administered either intraduodenally, by aerosol or intragastrically at 2 or 10 minutes before induction of bronchospasm by administration of either LTC4 or LTD4 at the predetermined dose-levels. Aerosols of soluble drugs or leukotrienes are produced in-line for 10 seconds only by actuation of an ultrasonic nebulizer (Monaghan). Aerosolized drug dosage is expressed in terms of solution concentration and by a fixed aerosol exposure time (approximately 10 seconds). Control animals receive solvent (2 ml/kg i.d. or appropriate aerosol) in place of drug.
Respiratory volume changes are determined by a calibrated piston whose travel is recorded, via a linear transducer, on a Beckman Dynograph recorder. Maximal bronchoconstrictor volume is determined by clamping off the trachea at the end of the experiment. Overflow volumes at 1,3 and 5 minutes are obtained from the recorded charts.
Area under the volume overflow curve (AUC) is estimated, using the overflow values at 1,3 and 5 minutes, and expressed as a percentage of the maximal overflow AUC (equation 1): [formula] Drug effects are reported as percent inhibition of % max AUC values obtained from appropriate control animals (equation 2): [formula]
Student's t-test for unpaired data is used to determine statistical signifiance (p<0.05). IC50 values can also be determined by inverse prediction from linear regression liens through points between 10 and 90% inhibition.

pleural inflammation = test: reverse passive Arthus pleurisy assay, pleural inflammation; assay type: in vivo; details: rat
Protocol: (§2) The compounds of the invention are further tested in the reverse passive Arthus pleurisy assay to evaluate their effectiveness in inflammatory mediator release and/or the fluid and cellular phases of an inflammatory response.
(§3) A reverse passive Arthus reaction is induced in the pleural cavity of male Lewis rats (150-200 g; fasted overnight prior to use) by the intravenous administration of bovine serum albumin (BSA; 4 mg/0.2 ml) followed 30 minutes later by the injection of rabbit anti-BSA (1 mg/0.2 ml; lyophilized IgG fraction; Organon Teknika, West Chester, PA) into the right pleural space under halothane anesthesia. Drugs or vehicle (0.5% Tween-80) control are administered orally in a volume of 1 ml/100 g body weight at 1 hour prior to the anti-BSA. Animals are sacrificed at either the time of peak eicosanoid production (i.e. 5 minutes after anti-BSA for immunoreactive TxB2, 10 minutes for immunoreactive LTB4, 20 minutes for immunoreactive LTC4) or at the time of peak neutrophil infiltration (4 hours after anti-BSA) by CO2 inhalation. The pleural cavity is then exposed, the fluid exudate removed by gentle vacuum aspiration and the volume of exudate is recorded. For the determination of cellular infiltration, the pleural cavity is rinsed with 3 ml of 0.1% EDTA in sterile saline, and the recovered wash is pooled with the exudate. Cell number is determined on a model ZBI Coulter counter. For determination of eicosanoid production, undiluted pleural exudate is microfuged and the supernatant is extracted with ethanol (8-10 times volume). Extracts are either stored at -20° C., or are evaporated to dryness under a stream of N2 and reconstituted in radioimmunoassay (RIA) buffer.
(§4) Inflammatory cells are expressed as 10^6 cells/ml, pleural exudate is expressed as ml of fluid, and the amount of eicosanoids in the pleural cavity is expressed as ng/ml of exudate. Mean±S.E.M. is determined for each group. Percent inhibition (% I) of cell number, exudate volume and eicosanoid production is calculated for vehicle-treated control groups, and the responses in drug-treated rats are then expressed as the mean $ I of control.

[1] = system: inflammatory mediator release; test: reverse passive Arthus pleurisy assay, inflammatory mediator release; assay type: in vivo, rat; details: rat
Protocol: as §2
as §3, with “Drugs or vehicle (0.5% Tween-80) control are administered orally in a volume of 1 ml/100 g body weight at 1 hour prior to the anti-BSA.” left out
Eicosanoids are quantitated by RIA according to the procedure specified by the RIA kit manufacturer (Advanced Magnetics, Cambridge, MA). Briefly, 100 μl of ^3 H-labeled eicosanoid and 100 μl of specific antibody are sequentially added to 100 μl of extracted pleural exudate in BGG-phosphate buffer which contains 0.01 M phosphate, 0.1% bovine gamma globulin and 0.1% sodium azide at pH 7.0. Antibody-bound eicosanoid is separated form unbound eicosanoid by the addition of 750 μl of dextran (0.4%)-coated charcoal (0.4% Norit A) containing 0.1% sodium azide. The mixture is centrifuged at 2000 RPM at 5° C. for 15 minutes to pellet the charcoal and adsorbed unbound eicosanoid. Antibody-bound labeled eicosanoid is quantitated by counting in a liquid scintillation counter, and is correlated to concentration by a standard curve.
as §4

[2] = system: acute gastroirritation induced by naproxen; test: cytoprotective activity against NSAID (naproxen)-induced acute gastroirritation in rats; assay type: in vivo, rat; details: drug 100 mg/kg peroral 1 hour before naproxen 25 mg/kg
From the text: The assay of Example 44 is also used to measure the cytoprotective activity of the compounds against acute gastroirritation induced by a nonsteroidal anti-inflammatory drug (NSAID).

inhibition at 10 µM (5-lipoxygenase)	% Inhibition (LTD4-induced bronchospasm) (LTD4)	SMILES	% Inhibition of CO (as TxB2) (cyclooxygenase)	% Inhibition of CO (as PGE2) (cyclooxygenase)	% Inhibition at 50 mg/kg (peroral) (carrageenan paw edema)	% Inh Cellular Influx (pleural inflammation; 8 mg/kg p.o.)	ED30 Fluid Exudation (pleural inflammation; p.o.)	% Inh LTB4 ([1]; 4 mg/kg p.o.)	ED50 TxB2 ([1]; p.o., 1 hour prior to anti-BSA, 5 min)	Oral ED50 (95% C.L.) (carrageenan paw edema; oral, 95% C.L. in parentheses, 180 min)	% of Rats With Lesions [2]	Comments (protection) [2]
100%	75%	CC(C(=O)O)c1ccc2cc(OCc3ccc4ccccc4n3)ccc2c1 (stereo not drawn) [Example 1, α-Methyl-6-(2-quinolinylmethoxy)-2-naphthaleneacetic acid]	28%	-37%	42%	–	–	–	–	–	–	–
24%	80%	CC(C(=O)O)c1ccc2cc(OCc3nc4ccccc4n3C)ccc2c1 (stereo not drawn) [Example 3, α-Methyl-6-[(1-methyl-1H-benzimidazol-2-yl)-methoxy]-2-naphthaleneacetic acid]	15%	-29%	32%	–	–	–	–	–	–	–
–	–	COc1ccc2c(c1)c(CC(=O)O)c(C)n2C(=O)c1ccc(Cl)cc1 [Indomethacin]	–	–	–	19%	2.5 mg/kg	12%	0.16 mg/kg	3.7 (0.6, 23.8) mg/kg	–	–
28%	–	CCCCOc1ccc2cc(C(C)C(=O)O)ccc2c1 (stereo not drawn) [Example 11, α-Methyl-6-(butyloxy)-2-naphthaleneacetic acid]	–	-3%	–	–	–	–	–	–	50.0%	moderate protection
81%	–	CCCCCCOc1ccc2cc(C(C)C(=O)O)ccc2c1 (stereo not drawn) [Example 10, α-Methyl-6-(hexyloxy)-2-naphthaleneacetic acid]	–	-5%	–	–	–	–	–	–	37.5%	protection
